Measured values as given in the kinase profiling compilation of Christmann-Franck et al. (2016).

Experiments:
Test in all cases: SelectScreen, TR FRET
Details in all cases: compound 5.0 µM
CSNK2A2 (human) = CSNK2A2 (human) (UniProt P19784)
PRKCB2 (human) = PRKCB2 (human) (UniProt P05771)
MAP4K5 (human) = MAP4K5 (human) (UniProt Q9Y4K4)
BTK (human) = BTK (human) (UniProt Q06187)
PAK4 (human) = PAK4 (human) (UniProt O96013)
[1] = system: PDGFRA (human), P16234 [T674I]
FER (human) = FER (human) (UniProt P16591)
MAPKAPK2 (human) = MAPKAPK2 (human) (UniProt P49137)
ROCK2 (human) = ROCK2 (human) (UniProt O75116)
CAMK2A (human) = CAMK2A (human) (UniProt Q9UQM7)
PTK2 (human) = PTK2 (human) (UniProt Q05397)
ABL2 (human) = ABL2 (human) (UniProt P42684)
MAPK11 (human) = MAPK11 (human) (UniProt Q15759)
CHEK2 (human) = CHEK2 (human) (UniProt O96017)
NTRK2 (human) = NTRK2 (human) (UniProt Q16620)
GRK6 (human) = GRK6 (human) (UniProt P43250)
CSK (human) = CSK (human) (UniProt P41240)
CSNK1G3 (human) = CSNK1G3 (human) (UniProt Q9Y6M4)
CAMK2D (human) = CAMK2D (human) (UniProt Q13557)
IRAK4 (human) = IRAK4 (human) (UniProt Q9NWZ3)
MAP2K1 (human) = MAP2K1 (human) (UniProt Q02750)
FGR (human) = FGR (human) (UniProt P09769)
PRKCA (human) = PRKCA (human) (UniProt P17252)
PRKCB1 (human) = PRKCB1 (human) (UniProt P05771)
KIT (human) = KIT (human) (UniProt P10721)
PIM1 (human) = PIM1 (human) (UniProt P11309)
SYK (human) = SYK (human) (UniProt P43405)
INSR (human) = INSR (human) (UniProt P06213)
EPHA3 (human) = EPHA3 (human) (UniProt P29320)
MAP4K4 (human) = MAP4K4 (human) (UniProt O95819)
FGFR1 (human) = FGFR1 (human) (UniProt P11362)
MET (human) = MET (human) (UniProt P08581)
[2] = system: ABL1 (human), P00519 [G250E]
AKT1 (human) = AKT1 (human) (UniProt P31749)
CAMK1D (human) = CAMK1D (human) (UniProt Q8IU85)
AKT2 (human) = AKT2 (human) (UniProt P31751)
LCK (human) = LCK (human) (UniProt P06239)
PDGFRB (human) = PDGFRB (human) (UniProt P09619)
MAPK13 (human) = MAPK13 (human) (UniProt O15264)
[3] = system: ABL1 (human), P00519 [Y253F]
[4] = system: FLT3 (human), P36888 [D835Y]

INSR (human), sequence (P06213 whole entry, looked up): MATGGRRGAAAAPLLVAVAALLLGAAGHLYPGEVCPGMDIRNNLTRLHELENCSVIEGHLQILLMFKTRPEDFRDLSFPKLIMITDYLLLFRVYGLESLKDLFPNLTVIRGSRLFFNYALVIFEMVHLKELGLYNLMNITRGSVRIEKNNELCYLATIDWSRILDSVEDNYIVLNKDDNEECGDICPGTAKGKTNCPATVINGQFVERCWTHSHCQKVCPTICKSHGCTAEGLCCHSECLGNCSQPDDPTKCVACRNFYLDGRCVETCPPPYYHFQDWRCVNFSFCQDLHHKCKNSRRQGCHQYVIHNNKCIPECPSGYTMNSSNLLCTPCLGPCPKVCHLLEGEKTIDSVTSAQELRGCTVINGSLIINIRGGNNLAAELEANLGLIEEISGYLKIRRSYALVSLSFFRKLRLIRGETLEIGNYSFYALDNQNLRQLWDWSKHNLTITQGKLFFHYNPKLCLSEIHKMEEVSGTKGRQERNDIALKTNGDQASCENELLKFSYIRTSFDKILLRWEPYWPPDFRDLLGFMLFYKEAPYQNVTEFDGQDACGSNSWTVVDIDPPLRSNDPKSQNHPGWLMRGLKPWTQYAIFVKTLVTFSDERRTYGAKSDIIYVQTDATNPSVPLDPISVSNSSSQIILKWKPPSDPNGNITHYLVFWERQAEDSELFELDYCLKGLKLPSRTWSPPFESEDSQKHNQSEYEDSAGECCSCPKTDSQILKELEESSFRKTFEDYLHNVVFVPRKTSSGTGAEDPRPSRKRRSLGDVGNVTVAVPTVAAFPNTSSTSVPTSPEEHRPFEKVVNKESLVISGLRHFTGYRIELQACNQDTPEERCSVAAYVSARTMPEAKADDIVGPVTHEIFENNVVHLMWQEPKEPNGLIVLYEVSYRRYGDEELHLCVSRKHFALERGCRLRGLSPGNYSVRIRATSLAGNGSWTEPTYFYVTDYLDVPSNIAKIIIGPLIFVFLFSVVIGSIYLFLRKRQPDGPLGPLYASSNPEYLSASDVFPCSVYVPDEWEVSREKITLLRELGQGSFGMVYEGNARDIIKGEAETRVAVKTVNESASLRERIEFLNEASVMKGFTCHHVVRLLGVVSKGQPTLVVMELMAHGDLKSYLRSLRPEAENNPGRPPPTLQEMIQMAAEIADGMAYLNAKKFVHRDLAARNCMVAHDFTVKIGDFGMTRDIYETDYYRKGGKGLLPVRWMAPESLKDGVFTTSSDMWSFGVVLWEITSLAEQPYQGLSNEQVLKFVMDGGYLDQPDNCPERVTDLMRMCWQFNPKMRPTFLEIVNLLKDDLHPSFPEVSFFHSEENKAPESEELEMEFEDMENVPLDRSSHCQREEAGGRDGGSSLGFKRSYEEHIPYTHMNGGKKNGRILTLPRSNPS
CSK (human), sequence (P41240 whole entry, looked up): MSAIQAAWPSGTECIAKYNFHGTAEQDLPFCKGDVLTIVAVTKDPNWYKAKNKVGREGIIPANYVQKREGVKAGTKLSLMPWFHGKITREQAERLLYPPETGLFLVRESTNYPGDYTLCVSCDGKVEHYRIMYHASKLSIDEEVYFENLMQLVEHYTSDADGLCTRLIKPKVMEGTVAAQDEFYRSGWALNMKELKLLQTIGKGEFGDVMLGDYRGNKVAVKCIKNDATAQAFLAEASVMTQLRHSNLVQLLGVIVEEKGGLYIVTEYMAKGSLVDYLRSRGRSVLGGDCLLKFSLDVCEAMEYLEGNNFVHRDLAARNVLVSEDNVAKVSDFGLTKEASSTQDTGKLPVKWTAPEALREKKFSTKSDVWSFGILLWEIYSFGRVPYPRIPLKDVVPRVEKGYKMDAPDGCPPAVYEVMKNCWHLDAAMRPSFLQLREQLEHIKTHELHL
BTK (human), sequence (Q06187 whole entry, looked up): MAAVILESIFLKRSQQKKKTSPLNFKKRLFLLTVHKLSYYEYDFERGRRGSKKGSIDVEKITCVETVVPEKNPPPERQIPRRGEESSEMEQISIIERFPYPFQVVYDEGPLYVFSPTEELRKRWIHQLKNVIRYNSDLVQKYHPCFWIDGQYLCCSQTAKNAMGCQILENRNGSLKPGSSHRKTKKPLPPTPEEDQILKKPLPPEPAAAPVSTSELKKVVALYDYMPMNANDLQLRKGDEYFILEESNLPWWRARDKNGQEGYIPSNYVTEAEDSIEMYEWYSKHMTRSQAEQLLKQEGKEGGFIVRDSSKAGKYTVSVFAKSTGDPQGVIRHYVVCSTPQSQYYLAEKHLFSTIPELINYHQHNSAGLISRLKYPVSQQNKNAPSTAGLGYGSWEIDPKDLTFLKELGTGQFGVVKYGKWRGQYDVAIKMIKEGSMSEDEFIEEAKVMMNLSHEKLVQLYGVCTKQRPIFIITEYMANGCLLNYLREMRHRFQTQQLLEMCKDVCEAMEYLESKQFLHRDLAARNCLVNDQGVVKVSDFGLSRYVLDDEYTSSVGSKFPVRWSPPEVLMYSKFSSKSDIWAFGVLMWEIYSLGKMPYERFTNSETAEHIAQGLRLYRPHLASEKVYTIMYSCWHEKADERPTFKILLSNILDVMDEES
KIT (human), sequence (P10721 whole entry, looked up): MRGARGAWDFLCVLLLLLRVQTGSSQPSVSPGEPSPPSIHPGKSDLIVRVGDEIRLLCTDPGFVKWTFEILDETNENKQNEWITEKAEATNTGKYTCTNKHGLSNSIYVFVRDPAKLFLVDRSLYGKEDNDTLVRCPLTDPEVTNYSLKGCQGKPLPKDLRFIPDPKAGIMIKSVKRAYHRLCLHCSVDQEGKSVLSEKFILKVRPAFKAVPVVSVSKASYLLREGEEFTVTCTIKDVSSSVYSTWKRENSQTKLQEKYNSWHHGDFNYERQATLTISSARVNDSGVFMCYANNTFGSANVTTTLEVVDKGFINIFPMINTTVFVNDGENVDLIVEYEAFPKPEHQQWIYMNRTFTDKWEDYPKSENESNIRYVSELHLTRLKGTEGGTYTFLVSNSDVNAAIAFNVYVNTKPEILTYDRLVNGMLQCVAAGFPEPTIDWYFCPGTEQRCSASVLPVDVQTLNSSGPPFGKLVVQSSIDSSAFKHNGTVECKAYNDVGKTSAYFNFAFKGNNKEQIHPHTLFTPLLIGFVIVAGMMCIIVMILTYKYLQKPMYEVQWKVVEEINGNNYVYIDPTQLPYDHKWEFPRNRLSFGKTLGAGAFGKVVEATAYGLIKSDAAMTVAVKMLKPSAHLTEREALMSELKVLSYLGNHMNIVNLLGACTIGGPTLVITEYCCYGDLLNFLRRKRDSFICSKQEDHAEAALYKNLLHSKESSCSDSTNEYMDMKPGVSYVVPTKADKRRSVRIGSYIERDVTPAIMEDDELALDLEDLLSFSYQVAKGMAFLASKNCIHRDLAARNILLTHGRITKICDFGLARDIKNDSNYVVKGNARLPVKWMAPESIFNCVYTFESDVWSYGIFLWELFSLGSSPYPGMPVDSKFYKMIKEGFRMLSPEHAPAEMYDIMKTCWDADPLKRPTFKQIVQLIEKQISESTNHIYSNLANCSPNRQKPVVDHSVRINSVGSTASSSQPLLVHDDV
PDGFRB (human), sequence (P09619 whole entry, looked up): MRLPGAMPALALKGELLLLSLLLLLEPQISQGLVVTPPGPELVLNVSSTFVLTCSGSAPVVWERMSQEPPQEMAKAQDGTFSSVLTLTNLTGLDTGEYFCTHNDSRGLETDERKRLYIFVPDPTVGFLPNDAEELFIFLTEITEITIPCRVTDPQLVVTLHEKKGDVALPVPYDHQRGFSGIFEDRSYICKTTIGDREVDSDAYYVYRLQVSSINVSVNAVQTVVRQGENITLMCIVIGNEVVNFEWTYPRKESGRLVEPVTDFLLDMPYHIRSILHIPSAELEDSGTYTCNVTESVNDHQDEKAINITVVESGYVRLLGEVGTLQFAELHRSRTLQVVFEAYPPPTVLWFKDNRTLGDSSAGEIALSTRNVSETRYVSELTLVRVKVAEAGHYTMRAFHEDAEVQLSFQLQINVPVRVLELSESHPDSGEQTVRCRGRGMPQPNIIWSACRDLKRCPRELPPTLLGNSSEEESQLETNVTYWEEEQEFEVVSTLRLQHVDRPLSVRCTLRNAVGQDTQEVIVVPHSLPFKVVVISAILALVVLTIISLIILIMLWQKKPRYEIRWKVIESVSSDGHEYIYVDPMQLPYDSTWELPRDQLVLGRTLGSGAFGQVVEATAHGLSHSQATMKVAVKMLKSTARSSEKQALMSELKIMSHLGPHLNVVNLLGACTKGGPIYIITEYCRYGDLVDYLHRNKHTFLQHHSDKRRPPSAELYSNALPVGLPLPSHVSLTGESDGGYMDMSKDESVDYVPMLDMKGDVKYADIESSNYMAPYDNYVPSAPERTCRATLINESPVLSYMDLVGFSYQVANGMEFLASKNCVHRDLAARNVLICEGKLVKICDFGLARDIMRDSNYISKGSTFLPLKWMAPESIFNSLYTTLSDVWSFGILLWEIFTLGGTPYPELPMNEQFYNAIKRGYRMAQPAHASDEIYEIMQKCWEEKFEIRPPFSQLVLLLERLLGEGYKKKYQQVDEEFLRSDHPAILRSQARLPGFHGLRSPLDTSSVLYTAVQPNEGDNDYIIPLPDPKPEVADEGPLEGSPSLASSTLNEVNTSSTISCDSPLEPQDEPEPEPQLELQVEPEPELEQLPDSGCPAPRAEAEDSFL
AKT2 (human), sequence (P31751 whole entry, looked up): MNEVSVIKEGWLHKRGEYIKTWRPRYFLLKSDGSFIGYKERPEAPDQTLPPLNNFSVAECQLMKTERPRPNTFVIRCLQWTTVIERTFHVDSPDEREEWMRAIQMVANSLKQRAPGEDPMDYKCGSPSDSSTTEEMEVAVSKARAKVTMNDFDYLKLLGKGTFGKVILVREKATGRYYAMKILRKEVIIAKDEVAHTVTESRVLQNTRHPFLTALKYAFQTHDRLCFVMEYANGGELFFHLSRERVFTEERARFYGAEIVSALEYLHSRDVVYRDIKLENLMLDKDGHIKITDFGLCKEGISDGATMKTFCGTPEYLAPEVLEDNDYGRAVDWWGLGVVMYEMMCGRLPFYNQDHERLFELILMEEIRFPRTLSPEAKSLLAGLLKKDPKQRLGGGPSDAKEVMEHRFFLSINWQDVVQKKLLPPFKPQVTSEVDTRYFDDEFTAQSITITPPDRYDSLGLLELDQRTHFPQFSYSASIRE

## Nc1cc(C(F)(F)F)c(-c2cc(N3CCOCC3)nc(N3CCOCC3)n2)cn1
CSNK2A2 (human)
  inhibition: -2%
PRKCB2 (human)
  inhibition: 8%
MAP4K5 (human)
  inhibition: 10%
BTK (human)
  inhibition: 3%
PAK4 (human)
  inhibition: -2%
[1]
  inhibition: 11%
FER (human)
  inhibition: 1%
MAPKAPK2 (human)
  inhibition: -4%
ROCK2 (human)
  inhibition: 3%
CAMK2A (human)
  inhibition: 2%
PTK2 (human)
  inhibition: 4%
ABL2 (human)
  inhibition: -3%
MAPK11 (human)
  inhibition: 4%
CHEK2 (human)
  inhibition: 17%
NTRK2 (human)
  inhibition: 9%
GRK6 (human)
  inhibition: 4%
CSK (human)
  inhibition: 5%
CSNK1G3 (human)
  inhibition: -3%
CAMK2D (human)
  inhibition: 1%
IRAK4 (human)
  inhibition: 12%
MAP2K1 (human)
  inhibition: 4%
FGR (human)
  inhibition: 15%
PRKCA (human)
  inhibition: 4%
PRKCB1 (human)
  inhibition: 30%
KIT (human)
  inhibition: 39%
PIM1 (human)
  inhibition: 6%
SYK (human)
  inhibition: 1%
INSR (human)
  inhibition: 6%
EPHA3 (human)
  inhibition: -2%
MAP4K4 (human)
  inhibition: 1%
FGFR1 (human)
  inhibition: 4%
MET (human)
  inhibition: 5%
[2]
  inhibition: -4%
AKT1 (human)
  inhibition: 2%
CAMK1D (human)
  inhibition: 12%
AKT2 (human)
  inhibition: 0%
LCK (human)
  inhibition: 7%
PDGFRB (human)
  inhibition: 5%
MAPK13 (human)
  inhibition: 2%
[3]
  inhibition: 1%
[4]
  inhibition: 11%
